“And” between values parts separate entries of the source, which are not always exact repeats. Identical values can stand only once. “Also recorded” adds a separate entry of the source.
Columns and labels:
[1] = Plasma potassium levels in sheep of the MCC study; type: in vivo
Protocol: (§1) In these studies, adult sheep were restrained and nasally intubated with an endotracheal tube. Aerosolized test articles were administered over 10-15 minutes to sheep. Radiolabeled ^99mTc-sulfur colloid (TSC, 3.1 mg/mL; containing approximately 20 mCi) was then administered at a specified time four or eight hours after test article. The radiolabeled aerosol was administered through the endotracheal tube for about 5 minutes. The sheep were then extubated, and total radioactive counts in the lung were measured every 5 minutes for a 1-hour observation period. The rate of radiolabel clearance from the lung is representative of the MCC rate in the animal. The advantage of this system is that it closely simulates the human lung environment. The model also allows for the collection of simultaneous PK/PD information through plasma and urine sampling over the test period. There are also several techniques to measure the drug concentrations on the airway surface during the MCC measurements. These include the collection of exhaled breath condensates or a filter paper method to obtain ASL via bronchoscopy.
The compound of Comparative Example 1 can be seen on page 15 of US 2005/0080093 and as Compound 2 on page 90 of WO 2008/031048, and as Compound 2 on pages 42-43 of WO 2008/031028. […] In order to evaluate this potential, it is beneficial to have MCC activity in vivo and not cause elevation of plasma potassium at the useful dose. One model to assess this is the sheep MCC model described below.

Sheep MCC = experiment: Mucociliary clearance (MCC) studies in sheep; type: in vivo; settings: for AUC (% CI × h) / Initial Slope (4.0-4.5 h): MCC at 4 h post-dose
Protocol: The animal model that has been used most often to measure changes in MCC is the sheep model. The effect of compounds for enhancing mucociliary clearance (MCC) can be measured using an in vivo model described by Sabater et al., Journal of Applied Physiology, 1999, pp. 2191-2196, incorporated herein by reference.
as §1
The ovine model described above was used to evaluate the in vivo effects (efficacy/durability) of aerosol-delivered test agent on MCC. Treatments consisting of either 4 mL of test agent or test agent in combination with HS were tested. To determine if combining HS with test agent enhanced MCC, HS was administered immediately following test agent administration. Test solutions were aerosolized using a Raindrop nebulizer at a flowrate of eight liters per minute and connected to a dosimetry system consisting of a solenoid valve and a source of compressed air (20 psi). The deposited dose of drug in sheep lungs after an aerosol administration using the Raindrop nebulizer is estimated to be 8-15% of the dose. Using a Raindrop nebulizer, radiolabeled TSC was administered over approximately 3 minutes either 4 or 8 hours after drug treatment to evaluate efficacy/durability. Radioactive counts were measured in a central region in the right lung at 5 min intervals for one hour with a gamma camera. Three methods of analysis were utilized, 1) initial rate of clearance (slope) over the first 30 min fitted using linear regression 2) area under the curve for % clearance over time over one hour, and 3) the maximum clearance obtained in one hour.

[2] = tested on: human bronchial epithelial (HBE) cells; experiment: Airway surface liquid drug clearance and metabolism by human airway epithelium; type: in vitro ADME
Protocol: The disappearance of 33 from the apical surface and airway epithelial metabolism were assessed in human bronchial epithelial (HBE) cells (Table 3). In these experiments 25 μL of a 25 μM solution of ENaC blocker was added to the apical surface of HBE cells grown at an air/liquid interface, and the drug and metabolite concentration in the apical and basolateral compartment was measured over 2 h by UPLC.
Therefore, the compounds of formula (I) have a longer half-life on mucosal surfaces compared to these know compounds as evidenced by the data shown in Table G. The disappearance of Compound 33 from the apical surface and airway epithelial metabolism were assessed in HBE and compared to Comparative Example 1 (Table H). In these experiments 25 μL of a 25 μM solution of ENaC blocker was added to the apical surface of HBE cells grown at an air/liquid interface, and the drug concentration in the apical and basolateral compartment was measured over 2 h by UPLC.

[3] = sheep, solution concentration given beside the dose
[4] = HBE cells at air/liquid interface, 25 μL of 25 μM apical, mean ± SD
[5] = HBE cells, 25 μL of 25 μM apical, parent only

With `N=C(NCCCCc1ccc(OC[C@H](N)C(N)=O)cc1)NC(=O)c1nc(Cl)c(N)nc1N` [Comparative Example 1, (S)-3,5-diamino-6-chloro-N—(N-(4-(4-(2,3-diamino-3-oxopropoxy)phenyl)butyl)carbamimidoyl)pyrazine-2-carboxamide] the “effect on plasma potassium” value ([1]; sheep of the MCC study, at efficacious dose) was “causes a rise in plasma potassium; also recorded: elevations of plasma K”, the “Top Dose in Sheep with no Elevation of Plasma Potassium” value [1, 3] was 24 nmol/kg (300 μM) and the ED50 (Sheep MCC; Ovis aries, using slope, AUC and Maximum Clearance, read-out: ED50 in the sheep MCC model) was roughly 0.24 µmol/kg. The “ED50 in the sheep MCC model (solution concentration)” value (Sheep MCC; approximate ED50 dose as concentration of dosing solution) was roughly 3000 µM, the “AUC (% CI × h)” value (Sheep MCC; sheep, 24 nmol/kg (300 μM)) was 6.9 ± 1.0 (3) % CI × h and the “Initial Slope (4.0-4.5 h)” value (Sheep MCC; sheep, 24 nmol/kg (300 μM)) was 14.5 ± 1.3 (3). The “AUC (% CI × h)” value (Sheep MCC; sheep, 240 nmol/kg (3 mM)) was 14.1 ± 2.2 (6) % CI × h, the “Initial Slope (4.0-4.5 h)” value (Sheep MCC; sheep, 240 nmol/kg (3 mM)) was 32.2 ± 7.3 (6) and the “MCC Highest Submaximal Dose” value (Sheep MCC; [3]) was 240 nmol/kg (3 mM). For the same compound, the “Therapeutic Ratio (Benefit/Risk)” value (Sheep MCC; sheep, top dose without plasma potassium elevation vs MCC highest submaximal dose) was 0.1, the “% of Apical Mass as Metabolites (2 h)” value [2, 4] was 83% and 83.0 ± 3.5% and the “% on Basolateral Side as Metabolites (2 h)” value [2, 4] was 94.7 ± 1.0%. The “% of Initial Apical Mass on Basolateral Side as Parent (2 h)” value [2, 5] was “(1% Parent)”, the “% of Initial Drug Mass on Apical Side as Parent (2 h)” value [2, 5] was “(8% Parent)” and the “fate on the apical side after 2 h incubation” value ([2]; HBE cells, apical surface, 37° C.) was “eliminated from the apical side”.
